Data: article PMC9232636, “Insights into the mechanism of action of the arbitrium communication system in SPbeta phages” (Nature Communications, 2022)
“Also recorded” adds a separate entry of the source.

Assays:
AimR^SPβ = settings: previously reported; cited from earlier work
AimR^Kat-DNA interaction = assay: EMSA, peptide-induced release of AimR^Kat from its DNA operator; type: biochemical, Katmira phage; settings: protein preincubated with 0.5 μM peptide 10 min, repeated three times
Procedure: (§1) AimR binding to its operator and the inhibition induced by the arbitrium peptide was analysed by native polyacrylamide and agarose gel electrophoresis. Double strand DNA primer probes were purchased from Macrogen. DNA (10 ng µl^−1) and AimR (from 0.5 μM) protein was mixed in EMSA buffer (50 mM tris pH8, 250 mM NaCl). The samples were incubated for 10 min at room temperature. For peptide inhibition assay, protein was preincubated with 0.5 μM peptide for 10 min before DNA addition. Electrophoresis was then performed in 8% polyacrylamide gels in Tris-Borate-EDTA (TBE) buffer for about 150 min at 100 V at 4 °C.

[1] = test system: AimR^Kat-N273A-DNA interaction; assay: EMSA, peptide-induced release of AimR^Kat-N273A from its target DNA; type: biochemical, Katmira phage; settings: protein preincubated with 0.5 μM peptide 10 min, repeated three times
Procedure: as §1

[2] = test system: SPβ ΔaimR prophage complemented with AimR^SPβ; assay: Prophage induction and phage titering, SPβ ΔaimR complemented with AimR^SPβ; type: cell-based, phage SPβ in B. subtilis; settings: for phage titer: JP 20223, 5 μM peptide, MC induced
Procedure: For induction, an overnight culture was diluted 1/100 in LB media supplemented with 0.1 mM MnCl2 and 5 mM MgCl2 and then grown at 37 °C with 210 rpm shaking until reaching absorbance 0.2 at 600 nm. This step was repeated twice to ensure the cells were in exponential growth. After the second growth, Mitomycin C (MC) at 0.5 μg ml^−1 was added to the culture. Where experiments were performed to test the effect of peptide on phage titre, 5 μM of the relevant peptide was added before starting the second growth to ensure the bacteria cells were able to incorporate the peptide. The induced cultures were incubated at 30 °C with 80 rpm shaking for 4 h and then left overnight at room temperature. Following lysis, samples were filtered using 0.2 μm filters and lysates were stored at 4 °C until use.
The number of phage particles contained in the phage lysate of interest was quantified by a titering assay. An overnight culture of the relevant recipient strain (normally B. subtilis ∆6 or with the corresponding plasmid) was diluted 1/100 in LB supplemented with 0.1 mM MnCl2 and 5 mM MgCl2 and then grown at 37 °C with 210 rpm shaking until reaching absorbance 0.2 at 600 nm. When required 1 mM IPTG was added. Then, 100 μl of recipient bacteria was infected with 100 μl of serial dilutions of phage lysate in phage buffer (PhB; 1 mM NaCl, 0.05 M Tris pH 7.8, 0.1 mM MnCl2, 5 mM MgCl2) at room temperature for 10 min and 3 ml of phage top agar (LB media supplemented with 0.1 mM MnCl2 and 5 mM MgCl2 and 0.7 % agar) at 55 °C was added to the culture-phage mix and immediately poured over phage base agar plates (LB media supplemented with 0.1 mM MnCl2 and 5 mM MgCl2 and 1.5% agar). Plaques were counted after overnight growth at 37 °C temperature and photographed.

AimR^Kat = molecular target: T1, AimR^Kat (Bacillus subtilis (Katmira prophage), UniProt A0A8I3AZZ2); type: binding, Katmira phage; settings: for Tm: Supplementary Fig. 5a, peptides at 0.5mM; for effect on Tm / stabilisation (in words): ThermoFluor
T1 sequence (A0A8I3AZZ2 2-387): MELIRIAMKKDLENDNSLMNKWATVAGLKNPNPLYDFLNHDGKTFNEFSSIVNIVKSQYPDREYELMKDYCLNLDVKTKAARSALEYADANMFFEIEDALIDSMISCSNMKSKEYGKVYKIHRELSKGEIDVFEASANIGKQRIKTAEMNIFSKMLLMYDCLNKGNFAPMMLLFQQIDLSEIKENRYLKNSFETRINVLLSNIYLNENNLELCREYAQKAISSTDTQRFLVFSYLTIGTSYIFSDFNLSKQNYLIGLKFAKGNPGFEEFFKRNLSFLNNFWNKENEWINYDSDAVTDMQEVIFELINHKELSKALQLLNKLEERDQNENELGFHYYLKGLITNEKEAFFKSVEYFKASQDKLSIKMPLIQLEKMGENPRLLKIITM
Procedure: The thermal shift assay was conducted in a 7500 Fast Real time PCR System (Applied Biosystems) as previously described. Briefly, samples of 20 μl buffer (20 mM Tris pH 8 and 250 mM NaCl) containing 5× Sypro Orange (Sigma-Aldrich) and 20 μM of protein were loaded in 96-well PCR plates. […] Samples were heated from 25 to 85 °C in steps of one degree. Fluorescent intensity was plotted versus temperature and integrated with GraphPad Prism software using a Boltzmann model to calculate melting temperatures.

AimR^Kat-N273A [3] = molecular target: T2, AimR^Kat-N273A (Bacillus subtilis, UniProt A0A8I3AZZ2, N274A); assay: Thermal shift assay of AimR^Kat-N273A with peptides; type: binding, Katmira phage; settings: ThermoFluor
Procedure: The thermal shift assay was conducted in a 7500 Fast Real time PCR System (Applied Biosystems) as previously described. Briefly, samples of 20 μl buffer (20 mM Tris pH 8 and 250 mM NaCl) containing 5× Sypro Orange (Sigma-Aldrich) and 20 μM of protein were loaded in 96-well PCR plates. To calculate the Tm in the presence of the peptide, 0.5 μM of GMPRGA or GIVRGA peptide was added to the mixture. Samples were heated from 25 to 85 °C in steps of one degree. Fluorescent intensity was plotted versus temperature and integrated with GraphPad Prism software using a Boltzmann model to calculate melting temperatures.

AimR^Kat-N273A [4] = molecular target: T2, AimR^Kat-N273A; assay: ITC, AimP binding to AimR^Kat-N273A; parameters: species or system Katmira phage; settings: 25 °C, 25 mM Tris-HCl pH 8, 250 mM NaCl
Procedure: ITC assays were carried out in a Nano ITC Low Volume (TA instruments). In the assays, proteins (AimR^Kat or AimR^Kat-N273A) and peptides concentration were 10 and 50 μM, respectively, and both were diluted in buffer 25 mM Tris-HCl pH 8, 250 mM NaCl. The experiments were performed at 25 °C. The data obtained was integrated, corrected and analysed using the NanoAnalyze software (TA Instruments) with a single-site or two-site binding models.

In the case of GMPRGA [AimP^SPβ, the SPβ AimP peptide], the “increase of Tm” value (AimR^SPβ) is listed as 10 °C, the “release of AimR^Kat from DNA” value (AimR^Kat-DNA interaction) is listed as “only AimP^Kat for the wt form” and the “release of AimR^Kat from DNA” value (AimR^Kat-DNA interaction; listed as GMPRGA) is listed as “neither GMPRGA (AimP^SPβ) nor SAIRGA (the phi3T AimP peptide, AimP^Phi) (Fig. 1b) affected AimR^Kat in its ability to recognise its cognate DNA box”. For the same substance, the “release of AimR^Kat-N273A from DNA” value [1] was “induce DNA releases for the N273A mutant form of AimR^Kat; also recorded: able to induce the release of AimR^Kat-N273A from its target DNA”, the phage titer ([2]; repeat 1) was 7.90E+08 pfu/ml and the phage titer ([2]; repeat 2) was 9.60E+07 pfu/ml. It also gave a phage titer ([2]; repeat 3) of 2.12E+09 pfu/ml, a phage titer ([2]; repeat 4) of 6.30E+07 pfu/ml and a phage titer ([2]; repeat 5) of 8.90E+07 pfu/ml. For the same substance, the phage titer ([2]; repeat 6) was 2.90E+08 pfu/ml, the phage titer ([2]; repeat 7) was 7.80E+07 pfu/ml and the “reduction of phage titre” value ([2]; MC 0.5 μg/ml, 5 μM peptide, compared with no peptide) was 10 times. The Tm (AimR^Kat) was 43 ºC, the “effect on Tm / stabilisation (in words)” value (AimR^Kat) was “did not have any effect” and the “stabilisation / binding capacity (in words)” value (AimR^Kat-N273A [3]) was “stabilises AimR^Kat-N273A”.
In the case of “SAIRGA [AimP^Phi, the phi3T AimP peptide]”, the “release of AimR^Kat from DNA” value (AimR^Kat-DNA interaction) is reported as “insensitive”, the “release of AimR^Kat from DNA” value (AimR^Kat-DNA interaction; listed as SAIRGA) is reported as “neither GMPRGA (AimP^SPβ) nor SAIRGA (the phi3T AimP peptide, AimP^Phi) (Fig. 1b) affected AimR^Kat in its ability to recognise its cognate DNA box” and the “release of AimR^Kat-N273A from DNA” value [1] is reported as “insensitive”. For the same substance, the Tm (AimR^Kat) was 43 ºC, the “effect on Tm / stabilisation (in words)” value (AimR^Kat) was “did not have any effect” and the “binding by ITC (in words)” value (AimR^Kat-N273A [4]) was “unable to bind”.
